Results as given in EP3661951B1, “GENES AND METHODS FOR BIOTECHNOLOGICAL PRODUCTION AND COMPARTMENTALIZATION OF HIGH ADDED VALUE APOCAROTENOIDS” (Agenzia Nazionale Per Le Nuove Tecnologie, L'Energia E Lo …, priority 2017, dated 2019).

Tests used:
[1] = system: Crocus sativus CsABCC2 transporter (SEQ ID NO 14); assay: In vitro transport assay ("transportomics") with yeast microsomes, inhibition by Probenecid; assay type: biochemical; details: Probenecid 1 mM, microsomes pre-incubated 10 minutes at room temperature; saffron hydroalcoholic extract as substrate; net ATP-dependent transport after 15 minutes; S. cerevisiae ybt1 microsomes
Experimental: (§1) A new in vitro assay was prepared, differing from the classical transportation assay wherein the vesicles are left to incubate for pre-established periods of time with the putative substrate, washed, lysed and the content analysed by liquid chromatography coupled to a UV/visible detector. With respect to the works existing in literature relating the in-vitro functional characterization of transporters, the present invention introduces the concept of "transportomics": the assay is based upon the transportation analysis, performed by LC-HRMS, of all molecules existing in the saffron extract. This approach, providing the use of a raw extract instead of commercial purified standards, allows to characterize the transportation even of molecules which are not commercially available; moreover, as it is based upon data obtained with high resolution mass spectrometry, rather than with photodiode series detector (PDA), the system is extremely sensitive and it allows to appreciate the transportation of low abundant metabolites.
(§2) With this method, then, it was observed that the two ABCC transporters are capable of transporting different crocins apart from some flavonoids (figure 10b, black bars). […]

[2] = system: Crocus sativus CsABCC1 transporter (SEQ ID NO 12); assay: as above; assay type: biochemical; details: Probenecid 1 mM, microsomes pre-incubated 10 minutes at room temperature; saffron hydroalcoholic extract as substrate; net ATP-dependent transport after 15 minutes; S. cerevisiae ybt1 microsomes
Experimental: as §1, §2

Structure (SMILES): CCCN(CCC)S(=O)(=O)c1ccc(C(=O)O)cc1 [Probenecid]
- transportation of saffron metabolites (crocins) in presence of Probenecid inhibitor [1]: considerable transportation reduction
- transportation of saffron metabolites (crocins) in presence of Probenecid inhibitor [2]: considerable transportation reduction
